Assay results taken from patent publication EP0908457B1, “3-(1,2-benzisothiazol- and isoxazol-5-Y1)-2,4(1H,3H)-pyrimidinedione or thione and 3-(1,2-benzisothiazol- and isoxazol-5-y1)-4(3H)-pyrimidinone or thione herbicidal agents” (BASF AKTIENGESELLSCHAFT, priority 1997, dated 1999).

Legend:
[1] = tested on: Monochoria vaginalis, Presl.; experiment: Preemergence weed control under flooded paddy conditions, MOOVA (Monochoria); assay type: in vivo; conditions: preemergence, flooded paddy, rated three to four weeks after treatment
[2] = tested on: Cyperus serotinus, Rottb.; experiment: Preemergence weed control under flooded paddy conditions, CYPSE (Flatsedge); assay type: in vivo; conditions: preemergence, rated three to four weeks after treatment
[3] = tested on: Oryza sativa, (L.) Tebonnet; experiment: Rice tolerance to post-transplant applications under flooded paddy conditions (Example 187), ORYSAT (Rice, Tebonnet); conditions: rated three to four weeks after treatment
Cyperus iria = experiment: Preemergence weed control under flooded paddy conditions, CYPIR (Rice Flatsedge); assay type: in vivo; conditions: preemergence, flooded paddy, rated three to four weeks after treatment
[4] = tested on: Echinochloa oryzoides (Ard.) Fritsch.; experiment: Preemergence weed control under flooded paddy conditions, ECHORC (Watergrass (Calif.)); assay type: in vivo; conditions: preemergence, flooded paddy, rated three to four weeks after treatment
Sagittaria pygmaea, L. = experiment: Preemergence weed control under flooded paddy conditions, SAGPY (Arrowhead (Pygmaea)); assay type: in vivo; conditions: preemergence, flooded paddy, rated three to four weeks after treatment
Also: meaning of each grade not given here.

Structure (SMILES)	herbicidal effect rating, MOOVA ([1]; Rate 0.0320 kg/ha)	herbicidal effect rating, MOOVA ([1]; Rate 0.0620 kg/ha)	herbicidal effect rating, MOOVA ([1]; Rate 0.1250 kg/ha)	herbicidal effect rating, MOOVA ([1]; Rate 0.2500 kg/ha)	herbicidal effect rating, CYPSE ([2]; Rate 0.0320 kg/ha)	herbicidal effect rating, CYPSE ([2]; Rate 0.0620 kg/ha)	herbicidal effect rating, CYPSE ([2]; Rate 0.2500 kg/ha)	herbicidal effect rating ORYSAT ([3]; Rate 0.0320 kg/ha)	herbicidal effect rating ORYSAT ([3]; Rate 0.0620 kg/ha)	herbicidal effect rating ORYSAT ([3]; Rate 0.1250 kg/ha)	herbicidal effect rating ORYSAT ([3]; Rate 0.2500 kg/ha)	herbicidal effect rating, CYPIR (Cyperus iria; Rate 0.0320 kg/ha)	herbicidal effect rating, CYPIR (Cyperus iria; Rate 0.0620 kg/ha)	herbicidal effect rating, CYPIR (Cyperus iria; Rate 0.1250 kg/ha)	herbicidal effect rating, CYPIR (Cyperus iria; Rate 0.2500 kg/ha)	herbicidal effect rating, ECHORC ([4]; Rate 0.0320 kg/ha)	herbicidal effect rating, ECHORC ([4]; Rate 0.0620 kg/ha)	herbicidal effect rating, ECHORC ([4]; Rate 0.1250 kg/ha)	herbicidal effect rating, ECHORC ([4]; Rate 0.2500 kg/ha)	herbicidal effect rating, SAGPY (Sagittaria pygmaea, L.; Rate 0.0320 kg/ha)	other results
C=CCC(C#N)(CC=C)c1nsc2ccc(-n3c(=O)cc(C(F)(F)F)n(C)c3=O)cc12 [Example 580, 1,2-Benzisothiazole-3-acetonitrile, alpha,alpha-diallyl-5-[3,6-dihydro-3-methyl-2,6-dioxo-4-(trifluoromethyl)-1(2H)-pyrimidinyl]-]	4.5	9.0	9.0	9.0	5.5	9.0	8.5	1.5	4.0	4.0	6.5	3.0	9.0	9.0	9.0	8.5	9.0	9.0	9.0	5.5	herbicidal effect rating, CYPSE ([2]; Rate 0.1250 kg/ha): 9.0; herbicidal effect rating, SAGPY (Sagittaria pygmaea, L.; Rate 0.0620 kg/ha): 8.0; herbicidal effect rating, SAGPY (Sagittaria pygmaea, L.; Rate 0.1250 kg/ha): 8.0; herbicidal effect rating, SAGPY (Sagittaria pygmaea, L.; Rate 0.2500 kg/ha): 8.5
C#CCC(C#N)(CC#C)c1nsc2ccc(-n3c(=O)cc(C(F)(F)F)n(C)c3=O)cc12 [Example 581, 1,2-Benzisothiazole-3-acetonitrile, 5-[3,6-dihydro-3-methyl-2,6-dioxo-4-(trifluoromethyl)-1(2H)-pyrimidinyl]-alpha,alpha-di-2-propynyl-]	4.5	4.5	9.0	9.0	1.0	1.5	8.0	1.5	3.5	6.0	7.0	3.0	4.5	9.0	9.0	6.0	8.5	9.0	9.0	3.0	herbicidal effect rating, CYPSE ([2]; Rate 0.1250 kg/ha): 6.0; herbicidal effect rating, SAGPY (Sagittaria pygmaea, L.; Rate 0.0620 kg/ha): 9.0; herbicidal effect rating, SAGPY (Sagittaria pygmaea, L.; Rate 0.1250 kg/ha): 9.0; herbicidal effect rating, SAGPY (Sagittaria pygmaea, L.; Rate 0.2500 kg/ha): 9.0
Cn1c(C(F)(F)F)cc(=O)n(-c2ccc3snc(C(C#N)(Cc4ccccc4)Cc4ccccc4)c3c2)c1=O [Example 582, 1,2-Benzisothiazole-3-acetonitrile, alpha,alpha-dibenzyl-5-[3,6-dihydro-3-methyl-2,6-dioxo-4-(trifluoromethyl)-1(2H)-pyrimidinyl]-]	7.0	7.0	7.0	7.0	0.0	0.0	7.0	0.0	0.0	0.0	3.0	3.0	4.0	6.0	6.0	6.0	7.0	7.0	9.0	5.0	herbicidal effect rating, CYPSE ([2]; Rate 0.1250 kg/ha): 0.0; herbicidal effect rating, SAGPY (Sagittaria pygmaea, L.; Rate 0.0620 kg/ha): 5.0; herbicidal effect rating, SAGPY (Sagittaria pygmaea, L.; Rate 0.1250 kg/ha): 6.0; herbicidal effect rating, SAGPY (Sagittaria pygmaea, L.; Rate 0.2500 kg/ha): 6.0
CC(C#N)c1nsc2ccc(-n3c(=O)cc(C(F)(F)F)n(C)c3=O)cc12 (stereo not drawn) [Example 583, 1,2-Benzisothiazole-3-acetonitrile, 5-[3,6-dihydro-3-methyl-2,6-dioxo-4-(trifluoromethyl)-1(2H)-pyrimidinyl]-alpha-methyl-]	6.0	9.0	9.0	9.0	8.5	9.0	9.0	5.0	7.0	9.0	9.0	9.0	9.0	9.0	9.0	3.0	7.5	9.0	9.0	9.0	herbicidal effect rating, CYPSE ([2]; Rate 0.1250 kg/ha): 9.0; herbicidal effect rating, SAGPY (Sagittaria pygmaea, L.; Rate 0.0620 kg/ha): 9.0; herbicidal effect rating, SAGPY (Sagittaria pygmaea, L.; Rate 0.1250 kg/ha): 9.0; herbicidal effect rating, SAGPY (Sagittaria pygmaea, L.; Rate 0.2500 kg/ha): 9.0
Cn1c(C(F)(F)F)cc(=O)n(-c2ccc3snc(COCc4ccc(Cl)cc4)c3c2)c1=O [Example 584, 2,4(1H,3H)-Pyrimidinedione, 3-{3-{[(p-chlorobenzyl)oxy]methyl}-1,2-benzisothiazol-5-yl}-1-methyl-6-(trifluoromethyl)-]	3.0	8.0	9.0	9.0	0.0	0.0	0.0	0.0	1.0	1.0	3.5	1.5	6.0	9.0	9.0	6.0	9.0	9.0	9.0	0.0	herbicidal effect rating, SAGPY (Sagittaria pygmaea, L.; Rate 0.0620 kg/ha): 1.5; herbicidal effect rating, SAGPY (Sagittaria pygmaea, L.; Rate 0.1250 kg/ha): 4.0; herbicidal effect rating, SAGPY (Sagittaria pygmaea, L.; Rate 0.2500 kg/ha): 2.0
Cn1c(C(F)(F)F)cc(=O)n(-c2ccc3snc(COCc4ccc(Cl)cc4Cl)c3c2)c1=O [Example 585, 2,4(1H,3H)-Pyrimidinedione, 3-{3-{[(2,4-dichlorobenzyl)oxy]methyl}-1,2-benzisothiazol-5-yl}-1-methyl-6-(trifluoromethyl)-]	3.5	3.5	4.5	9.0	0.0	0.0	3.0	1.0	1.5	1.5	1.5	2.5	8.5	9.0	9.0	5.0	8.5	8.5	9.0	0.0	herbicidal effect rating, CYPSE ([2]; Rate 0.1250 kg/ha): 0.0; herbicidal effect rating, SAGPY (Sagittaria pygmaea, L.; Rate 0.0620 kg/ha): 1.5; herbicidal effect rating, SAGPY (Sagittaria pygmaea, L.; Rate 0.1250 kg/ha): 2.0; herbicidal effect rating, SAGPY (Sagittaria pygmaea, L.; Rate 0.2500 kg/ha): 2.5
